# Test results as given in the supplement of paper PMC9763283.
# How the values were obtained:
# Assay in all cases: area under growth-rate inhibition curve (AUC GRI) (dimensionless (GR-based AUC)); higher = less growth inhibition
# Details in all cases: exposure time: 72 h; concentrations: 0.1, 1, 10 uM
# SKBR3-P = system: SKBR3-P
# Method in brief: (§1)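 Nuclear counts from Hoechst 33342- or DAPI-stained images were used to estimate the area under the growth-rate inhibition curve, with growth corrected by reference to untreated and DMSO-treated plates and starting plates. The six breast cancer cell line models, comprising two triple-negative lines and parental and drug-combination-resistant HER2+ lines, were treated with compound at 0.1, 1 or 10 µM for 72 h. Data came from 2 biological replicates, using Day 0 and Day 3 plates.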
# MDA-MB-468 = system: MDA-MB-468
# Method in brief: as §1
# BT474-P = system: BT474-P
# Method in brief: as §1
# SKBR3-LTR = system: SKBR3-LTR
# Method in brief: as §1
# BT474-LTR = system: BT474-LTR
# Method in brief: as §1
# MDA-MB-231 = system: MDA-MB-231
# Method in brief: as §1
SMILES,area under growth-rate inhibition curve (SKBR3-P),area under growth-rate inhibition curve (MDA-MB-468),area under growth-rate inhibition curve (BT474-P),area under growth-rate inhibition curve (SKBR3-LTR),area under growth-rate inhibition curve (BT474-LTR),area under growth-rate inhibition curve (MDA-MB-231)
CC(=O)O[C@]1(C(C)=O)CC[C@H]2[C@@H]3C=C(C)C4=CC(=O)CC[C@]4(C)[C@H]3CC[C@@]21C [Megestrol Acetate],0.968,1.01,0.978,1.09,1.09,1
CC12CC3CC(C)(C1)CC(N)(C3)C2.Cl [Memantine HCl],1.03,0.982,1,0.989,0.981,0.997
COc1ccc(CN(CCN(C)C)c2ccccn2)cc1.O=C(O)/C=C\C(=O)O [Mepyramine maleate],1.05,1.05,1.03,1.05,1.06,1.05
C[N+]1(C)C2CC(OC(=O)C(CO)c3ccccc3)CC1C1OC12.[Br-] (configuration not stated) [Methscopolamine],1.02,1.04,1.05,1.04,1.1,1.03
CC[C@@H](CO)NC(=O)[C@@H]1C=C2c3cccc4[nH]cc(c34)C[C@H]2N(C)C1.O=C(O)/C=C\C(=O)O [Methylergometrine maleate],1.04,1.06,1.01,1.05,1.05,1.03
CCN(CC)CCNC(=O)c1cc(Cl)c(N)cc1OC.Cl [MetoclopraMide HCl],1.02,1.01,1.04,1.04,1.09,1.05
COCCc1ccc(OCC(O)CNC(C)C)cc1.O=C(O)C(O)C(O)C(=O)O (configuration not stated) [Metoprolol Tartrate],0.999,0.98,0.987,0.997,1.01,1.01
CN1CCN2c3ccccc3Cc3ccccc3C2C1.[Cl-].[H+] (configuration not stated) [Mianserin HCl],1.02,1.06,1.07,1.09,1.12,1.03
CC#C[C@]1(O)CC[C@H]2[C@@H]3CCC4=CC(=O)CCC4=C3[C@@H](c3ccc(N(C)C)cc3)C[C@@]21C [Mifepristone],0.962,0.989,1,0.998,1.02,1.03
Cc1[nH]c(=O)c(C#N)cc1-c1ccncc1 [Milrinone],1.02,1.03,1.03,1.07,1.05,1.04
Nc1nc(CC(=O)Nc2ccc(CCNCC(O)c3ccccc3)cc2)cs1 (configuration not stated) [Mirabegron],1.02,1.01,1.04,1.07,1.11,1.02
CCOc1cc(N)c(Cl)cc1C(=O)NCC1CN(Cc2ccc(F)cc2)CCO1.O=C(O)CC(O)(CC(=O)O)C(=O)O (configuration not stated) [Mosapride Citrate],1.01,1.02,1.04,1.02,1.09,1.03
CN[C@H](CC(=O)O)C(=O)O [NMDA (N-Methyl-D-aspartic acid)],1.07,1.04,1.08,1.08,1.09,1.04
CC(C)(Cc1ccc2ccccc2c1)NC[C@@H](O)COc1cccc(Cl)c1C#N [NPS-2143],0.833,0.817,0.808,0.794,0.815,0.874
COc1ccccc1N1CCN(CC(O)COc2cccc3ccccc23)CC1.[Cl-].[Cl-].[H+].[H+] (configuration not stated) [Naftopidil DiHCl],0.983,0.995,0.978,1.05,1.02,1.02
COc1ccccc1N1CCN(CC(O)COc2cccc3ccccc23)CC1 (configuration not stated) [Naftopidil],1,1.02,1.01,1.07,1.08,1.04
C=CCN1CCC23c4c5ccc(O)c4OC2C(OCCOCCOCCOCCOCCOCCOCCOC)CCC3(O)C1C5 (configuration not stated) [Naloxegol],1.01,1.02,1,1.01,0.997,0.991
C=CCN1CC[C@]23c4c5ccc(O)c4O[C@H]2C(=O)CC[C@@]3(O)[C@H]1C5.[Cl-].[H+] [Naloxone HCl],1.03,1.02,1.05,1.05,1.08,1.04
Cl.O=C1CC[C@@]2(O)[C@H]3Cc4ccc(O)c5c4[C@@]2(CCN3CC2CC2)[C@H]1O5 [Naltrexone HCl],1.05,1.04,1.05,1.06,1.09,1.03
Cl.c1ccc2c(CC3=NCCN3)cccc2c1 [Naphazoline HCl],1.02,1.03,1.04,1.07,1.11,1.05
CNS(=O)(=O)CCc1ccc2[nH]cc(C3CCN(C)CC3)c2c1.[Cl-].[H+] [Naratriptan],0.994,1.04,1.04,1.06,1.04,1.02
OC(CNCC(O)C1CCc2cc(F)ccc2O1)C1CCc2cc(F)ccc2O1.[Cl-].[H+] (configuration not stated) [Nebivolol],0.938,0.805,0.882,0.853,0.88,0.874
